Consider 11 molecules from patent US20110045032A1 (priority 2001, published 2011).

For data set [1], the system named is Intracellular Adenosine in various Rat Tissues. The data set is classed as in vivo. As to the method: Folinic acid (50 mg/kg) was administered intraperitoneally once daily for fourteen days. […] Hearts were removed from animals and flash frozen in liquid nitrogen with 10 seconds of death. Liver and lungs were removed en bloc and flash frozen with 30 seconds of death. Brain tissue was subsequently dissected.

The next data set relates to muscarinic receptors. The settings on record: cited from earlier work.
In data set [2] the target is T1, M(1)-muscarinic receptors (Homo sapiens, UniProt P11229).
T1 sequence (P11229 1-460): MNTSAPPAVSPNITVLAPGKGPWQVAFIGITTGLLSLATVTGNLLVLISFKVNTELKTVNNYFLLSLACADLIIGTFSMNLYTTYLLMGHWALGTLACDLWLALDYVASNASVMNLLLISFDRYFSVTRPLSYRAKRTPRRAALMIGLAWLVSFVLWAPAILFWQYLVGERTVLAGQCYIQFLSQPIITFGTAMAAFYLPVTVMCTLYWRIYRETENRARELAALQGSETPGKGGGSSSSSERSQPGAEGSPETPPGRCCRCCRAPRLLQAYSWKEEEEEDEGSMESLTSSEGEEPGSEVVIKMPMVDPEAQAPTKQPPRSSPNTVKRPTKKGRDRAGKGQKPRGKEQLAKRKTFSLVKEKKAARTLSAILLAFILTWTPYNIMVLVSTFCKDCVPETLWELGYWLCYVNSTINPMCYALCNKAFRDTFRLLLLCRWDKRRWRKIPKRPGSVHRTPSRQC
The settings on record: cited from earlier work.

For data set [3], the system named is asthmatic and chronic obstructive pulmonary disease (COPD) patients. The settings on record: cited from earlier work.
Data set [4] concerns HT-29 SF cells. The experiment in a line: Reversal of DHEA-mediated growth inhibition by supplements. Type of data set: cell-based, human. As to conditions: 25 μM DHEA, 48 hours of treatment.
Data set [5] concerns HT-29 SF cells. Kind of data set: Reversal of DHEA effect on cell cycle by supplements. As to conditions: 25 μM DHEA. The data set is classed as cell-based, human.
In the next data set the test system is mast cell. As to conditions: cell incubation for 5 min; cited from earlier work.
In data set [6] the test system is HT-29 SF cells. The experiment in a line: DHEA effect on cell cycle distribution (flow cytometry). Type of data set: cell-based, human. As to conditions: 25-200 μM, 24-72 hours; time- and dose-dependent. As to the method:
Cells were plated at 10^5/60-mm dish in duplicate. […] Cultures were trypsinized following […] and fixed and stained using a modification of a procedure of Bauer et al., Cancer Res., 46, 3173-3178 (1986). Briefly, cells were collected by centrifugation and resuspended in cold phosphate-buffered saline. Cells were fixed in 70% ethanol, washed, and resuspended in phosphate-buffered saline.
After 24, 48, and 72 hours, cells were harvested, fixed in ethanol, and stained with propidium iodide, and the DNA content/cell was determined by flow cytometric analysis. The percentage of cells in G1, S, and G2M phases was calculated using the Cellfit cell cycle analysis program. S phase is marked by a quadrangle for clarity. Representative histograms from duplicate determinations are shown. The experiment was repeated three times.
(A flow cytometer gives signals particle by particle.)

Data set [7] deals with HT-29 SF cells. Kind of data set: DHEA effect on cell growth (Coulter counter).
Protocol: Cell cultures, HT-29 SF cells, which represent a subline of HY-29 cells (ATCC, Rockville, Md.) and are adapted for growth in completely defined serum-free PC-1 medium (Ventrex, Portland, Me.), were obtained. Stock cultures were maintained in this medium at 37° (in a humidified atmosphere containing 5% CO2).
The test system of the next data set is mast cells. The settings on record: cited from earlier work.
Data set [8] relates to adult acute asthma exacerbation. The settings on record: in conjunction with beta 2-agonists; adult and pediatric studies; cited from earlier work.
For data set [9], the system named is dust mite-sensitized rabbits. Kind of data set: Adenosine sensitivity PC40 (Example 25 animals). As to conditions: 4 animals.
Data set [10] has as its system dust mite-sensitized rabbits. The experiment in a line: Adenosine sensitivity PC40 (Example 26 animals). As to conditions: 5 animals.
Data set [11] deals with patients with mild-to-moderate asthma. As to conditions: cited from earlier work.

As to `Nc1nc(=O)c2c([nH]1)NCC(CNc1ccc(C(=O)N[C@@H](CCC(=O)O)C(=O)O)cc1)N2C=O` (mixture of isomers) [Folinic Acid, Folinic acid], in data set [1] (all organs studied), the “adenosine levels, folinic acid administered alone” value is “increase in adenosine levels”. Also, the “effect of co-administration of folinic acid on steroid-mediated adenosine depletion” value in [1] (co-administered with DHEA or methyltestosterone) is recorded as “completely abrogated”.
With `C[N+]1(C)[C@@H]2C[C@@H](OC(=O)C(O)(c3cccs3)c3cccs3)C[C@H]1[C@@H]1O[C@@H]12` [tiotropium bromide, Tiotropium bromide], the “affinity for muscarinic receptors” value with muscarinic receptors was “high affinity”. In addition, in data set [2], the dissociation from receptor entry was “dissociates very slowly”. The “duration of bronchodilator and bronchoprotective effect” value in data set [3] (Phase II, single inhaled doses) is reported as “over 24 h”. In addition, the “patients with dryness of the mouth” value in data set [3] (human, in vivo) was “approximately 10%”. The “duration of stable bronchodilation” value in [3] (phase III clinical trials, inhaled once daily) was “more than 24 hours”.
On to `CC(C)=CCC/C(C)=C/CC/C(C)=C/CC/C=C(\C)CC/C=C(\C)CCC=C(C)C` [SQ, squalene], for which the “reversal of DHEA-induced growth inhibition by supplement” value with HT-29 SF cells [4] is on record as “no such effect”.
Take `CC(C)CCC[C@@H](C)[C@H]1CC[C@H]2[C@@H]3CC=C4C[C@@H](O)CC[C@]4(C)[C@H]3CC[C@]12C` [CH, cholesterol]: the “reversal of DHEA-induced growth inhibition by supplement” value in the data set on HT-29 SF cells [4] is “no such effect”. In addition, the “prevention of DHEA-induced S phase depletion” value in the data set with HT-29 SF cells [5] (48 hours) is on record as “very little effect”.
`CN1[C@@H]2CC[C@H]1C[C@@H](OC(=O)C(CO)c1ccccc1)C2` (stereo partly drawn) [atropine]: the “inhibition of histamine release” value in the data set on mast cell is recorded as “no distinction”.
In the case of `C[C@@](O)(CCO)CC(=O)O` [MVA, mevalonic acid], in the data set on HT-29 SF cells [4], the “reversal of DHEA-induced growth inhibition by supplement” value is reported as “partially overcome”. The results for the “prevention of DHEA-induced S phase depletion” value with HT-29 SF cells [5] (48 hours) and in the data set with HT-29 SF cells [5] (72 hours) were “partially prevented” and “not”, respectively.
Turning to `C[C@]12CC[C@H](O)CC1=CC[C@@H]1[C@@H]2CC[C@]2(C)C(=O)CC[C@@H]12` [DHEA, dehydroepiandrosterone], the “cell cycle effect (overall)” value in the data set on HT-29 SF cells [6] is on record as “G1 block”. Further, in the data set with HT-29 SF cells [7] (0-200 μM, 0-72 hours), the inhibition of growth entry is “time- and dose-dependent inhibition of growth”. In addition, the “exposure time after which cell number reduced compared to controls” value in the data set on HT-29 SF cells [7] (25 or 50 μM DHEA) amounted to 48 h.
As to `CCC(CO)(C(=O)OC1C[C@H]2CC[C@@H](C1)[N+]2(C)C)c1ccccc1.[I-]` (stereo partly drawn) [troventol], the “inhibition of histamine release” value in the data set with mast cell is recorded as 47%. Further, in the data set with mast cells, the “decrease in speed of passive calcium ion uptake” value is reported as 56.3%.
Turning to `CC(C)[N+]1(C)[C@@H]2CC[C@H]1C[C@@H](OC(=O)C(CO)c1ccccc1)C2` (stereo partly drawn) [IB, Ipratropium Bromide], in [8], the “severe adverse effects attributable to ipratropium” value is reported as “Neither the adult nor the pediatric studies reported severe adverse effects”. The “inhibition of histamine release” value with mast cell is recorded as “no distinction”.
`Nc1ncnc2c1ncn2[C@@H]1O[C@H](CO)[C@@H](O)[C@H]1O` [adenosine]: the results for the “PC40 for adenosine, mean” value in [9] and in data set [10] were 2.5 mg/mL and 4.5 mg/mL, respectively.
In the case of `CC(c1cc2ccccc2s1)N(O)C(N)=O` (stereo not drawn) [Zyflo], in data set [11] (at the end of the study), the “beta-agonist puffs per day lower than baseline” value is listed as 31% and the “number of beta-agonist puffs needed per day” value is given as 1.77 puffs. In [11] (compared with 18.7% placebo), the “patients requiring steroid rescue” value was 7%. For the same molecule, the “reduction in patients requiring steroid rescue vs placebo” value in data set [11] (human, in vivo) was 62%.
